From patent US7544689B2, “Purine derivatives” (Cyclacel Limited, priority 2002, dated 2009)

Tests used:
CDK7/cyclin H = target: T1, CDK7/cyclin H (Homo sapiens, UniProt P50613); assay: Kinase assay, CDK7/cyclin H inhibition; format: biochemical
T1 construct: His6; made in house; host or cells: Sf9 insect cells (baculovirus)
Method: (§1) Recombinant cyclin DI was expressed in E. coli. Proteins were purified by metal chelate affnity chromatography to greater than 90% homogeneity. […] Reactions were stopped on ice, followed by filtration through p81 filterplates or GF/C filterplates (for CDK4) (Whatman Polyfiltronics, Kent, UK), except for CDK7 where, after stopping reaction on ice, 10 μL of 10 mg/mL avidin was added to each well and further incubated for 10 min followed by filtration as per CDK2 assay. After washing 3 times with 75 mM aq orthophosphoric acid, plates were dried, scintillant added and incorporated radioactivity measured in a scintillation counter (TopCount, Packard Instruments, Pangbourne, Berks, UK). Compounds for kinase assay were made up as 10 mM stocks in DMSO and diluted into 10% DMSO in assay buffer.

CDK2/cyclin E = target: T2, CDK2/cyclin E (Homo sapiens, UniProt P24941); assay: Kinase assay, CDK2/cyclin E inhibition; format: biochemical
T2 construct: His6; made in house; host or cells: Sf9 insect cells (baculovirus)
Method: as §1

CDK1/cyclin B = target: T3, CDK1/cyclin B (Homo sapiens, UniProt P06493); assay: Kinase assay, CDK1/cyclin B inhibition; format: biochemical
T3 construct: His6; made in house; host or cells: Sf9 insect cells (baculovirus)
T3 sequence (P06493 whole entry): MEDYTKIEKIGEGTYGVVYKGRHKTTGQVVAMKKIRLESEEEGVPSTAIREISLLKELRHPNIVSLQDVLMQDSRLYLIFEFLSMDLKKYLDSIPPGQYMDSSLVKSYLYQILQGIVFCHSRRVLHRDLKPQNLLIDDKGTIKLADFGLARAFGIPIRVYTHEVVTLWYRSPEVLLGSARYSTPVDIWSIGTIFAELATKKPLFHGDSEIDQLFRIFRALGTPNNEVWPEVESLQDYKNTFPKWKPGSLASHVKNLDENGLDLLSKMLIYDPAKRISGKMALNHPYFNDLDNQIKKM
T3 sequence (P14635 whole entry partner): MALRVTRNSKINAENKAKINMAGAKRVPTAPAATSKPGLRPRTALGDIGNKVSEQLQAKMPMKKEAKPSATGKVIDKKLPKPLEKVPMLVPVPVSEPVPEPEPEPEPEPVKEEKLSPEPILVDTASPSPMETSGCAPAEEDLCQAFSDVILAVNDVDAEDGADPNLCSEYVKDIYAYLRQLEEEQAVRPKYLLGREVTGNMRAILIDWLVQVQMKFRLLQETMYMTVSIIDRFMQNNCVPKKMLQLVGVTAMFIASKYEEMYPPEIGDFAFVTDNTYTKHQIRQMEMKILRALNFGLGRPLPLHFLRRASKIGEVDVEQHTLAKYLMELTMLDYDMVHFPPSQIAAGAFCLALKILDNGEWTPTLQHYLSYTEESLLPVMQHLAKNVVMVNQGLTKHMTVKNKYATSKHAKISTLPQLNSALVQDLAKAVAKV
Method: as §1

CDK4/cyclin D1 = target: T4, CDK4/cyclin D1 (Homo sapiens, UniProt P11802); assay: Kinase assay, CDK4/cyclin D1 inhibition; format: biochemical
T4 construct: His6; made in house; host or cells: CDK4: Sf9 insect cells (baculovirus); cyclin D1: E. coli
T4 sequence (P11802 whole entry): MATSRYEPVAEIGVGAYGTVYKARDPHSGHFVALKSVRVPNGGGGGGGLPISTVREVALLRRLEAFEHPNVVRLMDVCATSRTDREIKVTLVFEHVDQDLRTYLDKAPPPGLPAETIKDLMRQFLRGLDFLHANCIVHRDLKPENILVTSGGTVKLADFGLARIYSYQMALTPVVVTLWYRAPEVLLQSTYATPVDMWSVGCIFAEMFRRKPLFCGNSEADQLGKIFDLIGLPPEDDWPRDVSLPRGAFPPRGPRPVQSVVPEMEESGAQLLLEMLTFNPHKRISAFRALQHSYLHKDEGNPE
T4 sequence (P24385 whole entry partner): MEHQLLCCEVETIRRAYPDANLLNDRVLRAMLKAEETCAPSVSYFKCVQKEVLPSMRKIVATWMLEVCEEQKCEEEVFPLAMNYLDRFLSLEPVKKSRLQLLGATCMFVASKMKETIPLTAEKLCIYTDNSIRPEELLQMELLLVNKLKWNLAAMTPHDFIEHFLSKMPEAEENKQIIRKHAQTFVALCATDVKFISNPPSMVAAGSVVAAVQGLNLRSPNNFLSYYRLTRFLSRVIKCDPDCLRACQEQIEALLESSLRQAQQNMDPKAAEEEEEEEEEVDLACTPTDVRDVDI
Method: as §1

[1] = test system: Human tumour cell lines: A549, HT29, Saos-2; assay: 72-h MTT cytotoxicity assay; format: cell-based; conditions: for IC50: read-out: In vitro anti-proliferative activity (72 h MTT IC50), 72 h MTT, human tumour cell lines A549, HT29, Saos-2
Method: In short: cells were seeded into 96-well plates according to doubling time and incubated overnight at 37° C. Test compounds were made up in DMSO and a 1/3 dilution series prepared in 100 μL cell media, added to cells (in triplicates) and incubated for 72 ho at 37° C. MTT was made up as a stock of 5 mg/mL in cell media and filter-sterilised. Media was removed from cells followed by a wash with 200 μL PBS. MTT solution was then added at 20 μL per well and incubated in the dark at 37° C. for 4 h. MTT solution was removed and cells again washed with 200 μL PBS. MTT dye was solubilised with 200 μL per well of DMSO with agitation.

ERK2 = target: T5, ERK2 (Homo sapiens, UniProt P28482); assay: Kinase assay, ERK-2 inhibition; format: biochemical
T5 construct: purchased Upstate Biotechnology
T5 sequence (P28482 whole entry, species assumed): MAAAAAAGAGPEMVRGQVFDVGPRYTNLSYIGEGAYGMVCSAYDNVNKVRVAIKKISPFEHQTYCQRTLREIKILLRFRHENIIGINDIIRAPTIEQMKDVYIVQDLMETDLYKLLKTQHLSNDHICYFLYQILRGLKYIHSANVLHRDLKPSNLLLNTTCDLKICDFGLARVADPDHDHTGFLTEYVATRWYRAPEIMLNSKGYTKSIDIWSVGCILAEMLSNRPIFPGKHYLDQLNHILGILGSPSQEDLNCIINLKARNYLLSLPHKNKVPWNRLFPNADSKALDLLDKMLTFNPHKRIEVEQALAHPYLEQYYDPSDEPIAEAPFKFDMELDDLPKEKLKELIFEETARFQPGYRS
Method: Reactions were stopped on ice, followed by filtration through p81 filterplates or GF/C filterplates (for CDK4) (Whatman Polyfiltronics, Kent, UK), except for CDK7 where, after stopping reaction on ice, 10 μL of 10 mg/mL avidin was added to each well and further incubated for 10 min followed by filtration as per CDK2 assay. After washing 3 times with 75 mM aq orthophosphoric acid, plates were dried, scintillant added and incorporated radioactivity measured in a scintillation counter (TopCount, Packard Instruments, Pangbourne, Berks, UK). Compounds for kinase assay were made up as 10 mM stocks in DMSO and diluted into 10% DMSO in assay buffer.

[2] = target: T6, cyclic AMP-dependent kinase (PKA) catalytic subunit (Homo sapiens, UniProt P17612); assay: Kinase assay, PKA inhibition; format: biochemical
T6 construct: purchased Calbiochem 539487
Method: as §1

[3] = Comparative in vitro metabolism assay (microsomal incubation); conditions: for % Drug after 30 min. microsomal incubation: 10 μM compound, 0.2 mg microsomal protein, NADPH; for A: % Compound remaining/% roscovitine remaining: ratio to roscovitine, 30 min microsomal incubation
Method: Calibration curves were prepared at 0, 1, and 10 μM in microsomes pre-incubated for 30 min and these were also treated with methanol containing olomoucine. All samples were then centrifuged and the supernatants analysed by liquid chromatography-mass spectrometry.
The chromatography column was a Supelco LC-ABZ, 50×4.6 mm, 5 μm zwitterionic column (Supelco Inc., Supelco Park, Bellefonte, Pa., USA). Gradient eluants consisted of methanol (A) and 0.1% formic acid in water (B). […] The flow rate was 1 mL/min throughout. […] Eluant from the detector passed, without splitting, into a Thermoquest LCQ ion trap mass spectrometer fitted with an electrospray source operated in positive mode. Mass spectrometer conditions were sheath gas 80, auxiliary gas 20 (both arbitrary units), capillary voltage 4 to 4.5 kV and heated capillary temperature 250 to 280° C. The mass range was 50-750. Scan time was controlled by the ion trap which was set to a maximum ion injection-time of 200 ms or the time required to inject 2×10^8 ions; for each scan the system automatically used whichever time was reached first.

[4] = test system: representative panel of human transformed tumour cell lines; assay: Average anti-proliferative activity in tumour cell line panel; format: cell-based; conditions: average over representative panel of human transformed tumour cell lines

T1 sequence (P50613 whole entry): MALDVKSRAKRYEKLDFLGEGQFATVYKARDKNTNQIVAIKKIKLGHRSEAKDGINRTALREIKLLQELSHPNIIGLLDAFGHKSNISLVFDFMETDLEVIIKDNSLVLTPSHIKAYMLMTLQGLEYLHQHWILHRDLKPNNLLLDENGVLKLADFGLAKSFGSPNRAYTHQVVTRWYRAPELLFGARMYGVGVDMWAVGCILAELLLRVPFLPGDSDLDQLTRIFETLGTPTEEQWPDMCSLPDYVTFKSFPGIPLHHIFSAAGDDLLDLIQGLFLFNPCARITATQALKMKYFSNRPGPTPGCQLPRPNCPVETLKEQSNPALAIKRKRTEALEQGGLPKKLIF
T1 sequence (P51946 whole entry partner): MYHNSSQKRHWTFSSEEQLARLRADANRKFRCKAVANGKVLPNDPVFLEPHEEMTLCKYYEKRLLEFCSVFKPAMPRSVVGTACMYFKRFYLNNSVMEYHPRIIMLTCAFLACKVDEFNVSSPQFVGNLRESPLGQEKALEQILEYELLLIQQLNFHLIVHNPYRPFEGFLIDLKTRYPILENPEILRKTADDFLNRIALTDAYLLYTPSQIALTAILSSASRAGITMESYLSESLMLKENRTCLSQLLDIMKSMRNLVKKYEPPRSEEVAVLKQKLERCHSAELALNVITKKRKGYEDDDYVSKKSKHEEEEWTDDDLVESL

| SMILES | IC50 (CDK7/cyclin H) | IC50 (CDK2/cyclin E) | IC50 (CDK1/cyclin B) | IC50 (CDK4/cyclin D1) | IC50 (ERK2) | IC50 [2] | A × B (CDK2/cyclin E; comparative in vitro efficacy: metabolism ratio × CDK2 ratio) | B: IC50 CDK2 roscovitine/IC50 CDK2 compound (CDK2/cyclin E; ratio to roscovitine) | IC50 [4] | IC50 [1] | C: IC50 cytotox. roscovitine/IC50 cytotox. compound ([1]; ratio to roscovitine) | % Drug after 30 min. microsomal incubation [3] | A: % Compound remaining/% roscovitine remaining [3] |
| --- | --- | --- | --- | --- | --- | --- | --- | --- | --- | --- | --- | --- | --- |
| CC[C@H](CO)Nc1nc(NCc2ccccc2)c2ncn(C(C)C)c2n1 [Roscovitine, reference compound] | – | – | – | – | – | – | – | – | – | – | – | 33% | 1.0 |
| CC[C@@H](Nc1nc(NCc2ccccn2)c2ncn(C(C)C)c2n1)C(C)(C)O [(3R)-3-{9-Isopropyl-6-[(pyridin-2-ylmethyl)-amino]-9H-purin-2-ylamino}-2-methyl-pentan-2-ol] | 4.2 µM | 0.48 µM | 44 µM | 18 µM | > 200 µM | > 200 µM | – | – | – | 35 µM | – | – | – |
| CC[C@H](Nc1nc(NCc2ccccn2)c2ncn(C(C)C)c2n1)C(O)C(C)(C)C (mixture of isomers) [(3RS,4S)-4-{9-Isopropyl-6-[(pyridin-2-ylmethyl)-amino]-9H-purin-2-ylamino}-2,2-dimethyl-hexan-3-ol] | 5.8 µM | 1 µM | > 200 µM | 22 µM | 137 µM | > 200 µM | – | – | – | 33 µM | – | – | – |
| CC[C@@H](Nc1nc(NCc2ccccn2)c2ncn(C(C)C)c2n1)[C@H](C)O [(2S3R)-3-{9-Isopropyl-6-[(pyridin-2-ylmethyl)-amino]-9H-purin-2-ylamino}-pentan-2-ol] | 0.55 µM | 0.52 µM | 39 µM | 48 µM | 73 µM | > 200 µM | – | – | – | 12 µM | – | – | – |
| CCC(O)[C@@H](CC)Nc1nc(NCc2ccccn2)c2ncn(C(C)C)c2n1 (mixture of isomers) [(3RS,4R)-4-{9-Isopropyl-6-[(pyridin-2-ylmethyl)-amino]-9H-purin-2-ylamino}-hexan-3-ol] | 1.2 µM | 0.77 µM | 35 µM | 20 µM | 230 µM | > 200 µM | – | – | – | 19 µM | – | – | – |
| CC[C@@H](Nc1nc(NCc2ccccc2)c2ncn(C(C)C)c2n1)C(=O)O [carboxyl derivative, (2R)-2-(6-Benzylamino-9-isopropyl-9H-purin-2-ylamino)-butyric acid] | – | – | – | – | – | – | – | – | > 50 µM | – | – | – | – |

Further compounds by falling IC50 (CDK7/cyclin H), results first:

| IC50 (CDK7/cyclin H) | IC50 (CDK2/cyclin E) | IC50 (CDK1/cyclin B) | IC50 (CDK4/cyclin D1) | IC50 (ERK2) | IC50 [2] | A × B (CDK2/cyclin E; comparative in vitro efficacy: metabolism ratio × CDK2 ratio) | B: IC50 CDK2 roscovitine/IC50 CDK2 compound (CDK2/cyclin E; ratio to roscovitine) | IC50 [4] | SMILES | IC50 [1] | C: IC50 cytotox. roscovitine/IC50 cytotox. compound ([1]; ratio to roscovitine) | % Drug after 30 min. microsomal incubation [3] | A: % Compound remaining/% roscovitine remaining [3] |
| --- | --- | --- | --- | --- | --- | --- | --- | --- | --- | --- | --- | --- | --- |
| 3.9 µM | 3.4 µM | 84 µM | 32 µM | > 200 µM | > 200 µM | – | – | – | CC[C@@H](Nc1nc(NCc2ccccn2)c2ncn(C(C)C)c2n1)C(O)C(C)C (mixture of isomers) [(3RS,4R)-4-{9-Isopropyl-6-[(pyridin-2-ylmethyl)-amino]-9H-purin-2-ylamino}-2-methyl-hexan-3-ol] | 23 µM | – | – | – |
| 3.3 µM | 3.1 µM | > 200 µM | 49 µM | > 200 µM | > 200 µM | – | – | – | CC[C@H](Nc1nc(NCc2ccccn2)c2ncn(C(C)C)c2n1)C(O)C(C)C (mixture of isomers) [(3RS,4S)-4-{9-Isopropyl-6-[(pyridin-2-ylmethyl)-amino]-9H-purin-2-ylamino}-2-methyl-hexan-3-ol] | 26 µM | – | – | – |
| 2.6 µM | 0.42 µM | 40 µM | 24 µM | 80 µM | > 200 µM | – | – | – | CCC(O)[C@H](CC)Nc1nc(NCc2ccccn2)c2ncn(C(C)C)c2n1 (mixture of isomers) [(3RS,4S)-4-{9-Isopropyl-6-[(pyridin-2-ylmethyl)-amino]-9H-purin-2-ylamino}-hexan-3-ol] | 27 µM | – | – | – |
| 2.6 µM | 0.05 µM | 8.9 µM | 18 µM | 77 µM | > 200 µM | 1.9 | 1.9 | – | CC[C@H](Nc1nc(NCc2ccccn2)c2ncn(C(C)C)c2n1)[C@@H](C)O [(2R3S)-3-{9-Isopropyl-6-[(pyridin-2-ylmethyl)-amino]-9H-purin-2-ylamino}-pentan-2-ol] | 9.8 µM | 1.2 | 33% | 1.0 |
| 2.4 µM | 2.8 µM | > 200 µM | 38 µM | > 200 µM | > 200 µM | – | – | – | CC[C@@H](Nc1nc(NCc2ccccn2)c2ncn(C(C)C)c2n1)C(O)C(C)(C)C (mixture of isomers) [(3RS,4R)-4-{9-Isopropyl-6-[(pyridin-2-ylmethyl)-amino]-9H-purin-2-ylamino}-2,2-dimethyl-hexan-3-ol] | 38 µM | – | – | – |
